Molecules are shown by their SMILES.

From paper PMC4876444, “Two-Photon Enzymatic Probes Visualizing Sub-cellular/Deep-brain Caspase Activities in Neurodegenerative Models” (Scientific Reports, 2016) come the findings set out here.

In data set [1] the test system is NIH/3T3, BV2 and HeLa cells. Kind of data set: XTT cytotoxicity assay. It is filed as cell-based, mouse, human. Particulars: XTT assay, 12, 30, 60, 120 μM, 24 h. On the procedure:
Supplementary Figure 4. Cytotoxicity of two-photon enzymatic probes (12, 30, 60, 120 μM) in mammalian cells (NIH/3T3, BV2 and HeLa) after incubation for 24 h, as determined by XTT assay. […]
Detection of caspase activities in mammalian cells and tissues
Cell culture. The mouse embryonic fibroblast cell line (NIH/3T3), mouse microglial cell line (BV2) and human epithelial carcinoma cell line (HeLa) used in our experiments were cultured in Dulbecco’s Modified Eagle's Medium (DMEM) supplemented with 10% (for NIH/3T3 and HeLa) or 5% (for BV2) fetal bovine serum (FBS), 100.0 mg/L streptomycin and 100 IU/mL penicillin in a humidified atmosphere of 5% CO2 at 37 °C.
XTT assay. The cytotoxicity of our probes was determined by using the XTT colorimetric cell proliferation kit (Roche) following manufacturer’s guidelines. Briefly, NIH/3T3, BV2 and HeLa cells were seeded in 20~30% confluency (since they will reach >50% confluency within 24 h) into 96-well plates and incubated overnight before the addition of probes with concentrations of 12 μM, 30 μM, 60 μM and 120 μM, respectively. Probes were applied from DMSO stocks whereby DMSO never exceeded 1% in the final solution. The same volume of DMSO was used as a negative control; and the same volume of STS (200 nM) was used as a positive control. After a total treatment time of 24 h, proliferation was assayed using the XTT assay (Supplementary Fig. 4). […]
For orientation: Tetrazolium assays rely on reduction of a dye to a coloured formazan, in cell work by metabolically active cells.

Data set [2] has as its system caspase-3/-7-like activities in brain slices. In words: TPFM of caspase-3 activation in brain slices of ethanol-intoxicated mouse. Particulars: 200-μm-thick brain sections of ethanol-intoxicated 7-day-old C57BL/6 mice, probe 120 μM, 3 h, 37 °C, Z-axis scanning TPFM. Here is the method:
Figure 4 Imaging endogenous caspase activities in deep tissues. (a) TPFM of caspase-3 activation in brain slices of ethanol-intoxicated 7-day-old C57BL/6 mouse using C3RA (120 μM, 3 h). Top: 3D images of the mouse brain slice taken along the Z-axis from 0 to 160 μm at 10x magnification. Bottom: images taken at a depth of 120 μm at 40x magnification. […]: control slices (saline-treated); panels 2/6/4/8: treated with caspase-3/7 inhibitor I (200 μM, 3 h). Scale bar = 50 μm. (b) RFU readings extracted from (a) (FTPFM, blue bars) versus those from in vitro enzymatic assays using lysates from the same brain slices (RFU, orange bars). The signal from saline controls was set as “0” and that from ethanol-treated samples was set as “1” in RFU quantification. Due to the base-level active caspase-3 in the saline controls, negative readings were shown with inhibitor-treated samples. (c) WB analysis of caspase-3/-1/-8 activation in lysates of the same mouse brain slices shown in (a). (d) Normalized RFU readings from in vitro enzymatic assays using brain lysates (300 μg) of saline/ethanol treated mice after incubation with C1RB/C3RA/C8RA (6 μM) for 1 h at 37 °C.
All two-photon images were taken on a Leica TCS SP5X Confocal Microscope System. […]

Assay in data set [3]: not given
The source holds these as a separate data set.

Assay in data set [4]: not given
The source holds these as a separate data set.

Turning to `CC(=O)N[C@@H](CC(=O)O)C(=O)N[C@@H](CCC(=O)O)C(=O)N[C@H](C(=O)N[C@@H](CC(=O)O)C(=O)Nc1ccc2cc(C(C)=O)ccc2c1)C(C)C` [C3RA, Ac-DEVD-AAN], the λem (emission maximum) turned out to be 448 nm. Further, the cytotoxicity entry in data set [1] is recorded as “minimally cytotoxic”. In data set [2], the “tissue depth of detection of caspase-3/-7-like activities” value is recorded as ≤ 160 μm. The compound also yielded a λex (absorption/excitation maximum) in data set [3] of 316 nm. The compound also registered a δΦ (two-photon action cross-section) in data set [4] of 2.9 GM.
